Like-named read-outs stand apart in the source and are kept apart here.
How the values were obtained:
[1] = for thermodynamic stability in solvents: toluene, MTBE, acetone, THF, 2-methyl THF
[2] = From the text: Chemical stability of the hemifumarate form of tenofovir alafenamide was compared with the monofumarate form. […] Conditions evaluated include temperature, relative humidity (RH), and the open or closed state of the container cap.
[3] = 25° C., relative humidity of 90%
Method: DVS analysis was conducted using 4.951 mg of tenofovir alafenamide hemifumarate. The material was kept at 25° C. in nitrogen at humidities ranging from 10% to 90% relative humidity: each step was equilibrated for 120 minutes.

[4] = 40° C./75% RH Cap Closed, 0 weeks
[5] = 40° C./75% RH Cap Closed, 1 week
[6] = 40° C./75% RH Cap Closed, 2 weeks
[7] = 40° C./75% RH Cap Closed, 4 weeks
[8] = 40° C./75% RH Cap Closed, 8 weeks
[9] = 40° C./75% RH Cap Open, 0 weeks
[10] = 40° C./75% RH Cap Open, 2 weeks
[11] = 40° C./75% RH Cap Open, 4 weeks
[12] = 40° C./75% RH Cap Open, 8 weeks

Row | Substance | thermodynamic stability in solvents ([1]; ACN, ethyl acetate) | % TA Area Normalized [2, 4] [%] | % Total Deg. Products [2, 4] [%] | % TA Area Normalized [2, 5] [%] | % Total Deg. Products [2, 5] [%] | % TA Area Normalized [2, 6] [%] | % Total Deg. Products [2, 6] [%] | % TA Area Normalized [2, 7] [%] | % Total Deg. Products [2, 7] [%] | % TA Area Normalized [2, 8] [%] | % Total Deg. Products [2, 8] [%] | % TA Area Normalized [2, 9] [%] | % Total Deg. Products [2, 9] [%] | % TA Area Normalized ([2]; 40° C./75% RH Cap Open, 1 week) [%] | % Total Deg. Products ([2]; 40° C./75% RH Cap Open, 1 week) [%] | % TA Area Normalized [2, 10] [%] | % Total Deg. Products [2, 10] [%] | % TA Area Normalized [2, 11] [%] | % Total Deg. Products [2, 11] [%] | % TA Area Normalized [2, 12] [%] | other results
1 | tenofovir alafenamide hemifumarate | thermodynamically stable in most solvents | 98.4 | 0.05 | 98.4 | 0.14 | 98.5 | 0.14 | 98.4 | 0.25 | 98.0 | 0.49 | 98.4 | 0.05 | 98.5 | 0.15 | 98.5 | 0.14 | 98.4 | 0.26 | 98.1 | % Total Deg. Products [2, 12]: 0.50%; % TA Area Normalized ([2]; 70° C. Cap Closed, 0 weeks): 98.4%; % Total Deg. Products ([2]; 70° C. Cap Closed, 0 weeks): 0.05%; % TA Area Normalized ([2]; 70° C. Cap Closed, 2 weeks): 98.5%; % Total Deg. Products ([2]; 70° C. Cap Closed, 2 weeks): 0.22%; % TA Area Normalized ([2]; 70° C. Cap Closed, 4 weeks): 98.4%; % Total Deg. Products ([2]; 70° C. Cap Closed, 4 weeks): 0.33%; water absorbed [3]: 0.65%
2 | tenofovir alafenamide monofumarate [Monofumarate form] | not thermodynamically stable | 97.1 | 0.69 | 97.0 | 0.87 | 96.6 | 1.18 | 96.4 | 1.49 | 95.4 | 2.36 | 97.1 | 0.69 | 96.9 | 0.90 | 96.6 | 1.10 | 96.2 | 1.67 | 95.0 | form conversion when suspended in solvent ([1]; ACN, ethyl acetate, MTBE, and acetone): partially converts to the hemifumarate form; form conversion when suspended in solvent ([1]; THF and 2-methyl THF): fully converts to the hemifumarate form; % Total Deg. Products [2, 12]: 2.74%; % TA Area Normalized ([2]; 70° C. Cap Closed, 0 weeks): 97.1%; % Total Deg. Products ([2]; 70° C. Cap Closed, 0 weeks): 0.69%; % TA Area Normalized ([2]; 70° C. Cap Closed, 2 weeks): 96.2%; % Total Deg. Products ([2]; 70° C. Cap Closed, 2 weeks): 1.83%; % TA Area Normalized ([2]; 70° C. Cap Closed, 4 weeks): 93.3%; % Total Deg. Products ([2]; 70° C. Cap Closed, 4 weeks): 4.78%

From patent US20170056423A1 (Gilead Sciences, Inc., priority 2012, published 2017)
